In patent US5786145A, “Oligonucleotide competitors for binding of HIV RRE to REV protein and assays for screening inhibitors of this binding” (Medical Research Council, priority 1995, dated 1998):

Tests used:
Set-up in all cases: species or system HIV-1
rev protein [1] = test: Saturation binding of rev protein to labelled RBC6 (FIG. 15); details: 1.5 nM labelled RBC6, 0-50 nM rev; read-out: Kd from saturation binding, Scatchard plot
Description: (§1) Binding experiments were carried out using labelled RBC6 (SEQ ID NO:20 and SEQ ID NO:21) duplex formed frm the 5'-^32 P-labelled 14-mer oligoribonucleotide annealed to the 15 mer (0.6 nM) and 0-150 nM unlabelled RBC6 in the presence of 24 nM rev protein.
The mixtures for binding (0.5 ml) included 1.5 nM ^32 P-labelled RBC6 (SEQ ID NO:20 and SEQ ID NO:21) (ca. 20,000 cpm), varying concentrations (0-50 nM) of rev protein and 80 units/ml RNasin in TK buffer. The filter binding assays were carried out as described above, and the results were plotted on a graph (FIG. 15).

rev protein [2] = test: Scatchard analysis of RBC6 binding to rev (FIG. 14); details: 0.6 nM labelled RBC6, 0-150 nM unlabelled RBC6, 24 nM rev; read-out: Kd (binding constant) from Scatchard plot
Description: as §1
The mixtures for binding (0.5 ml) included 0.6 nM ^32 P-labelled RBC6 (SEQ ID NO:20 and SEQ ID NO:21) (ca. 20,000 cpm), 24 nM rev protein, varying concentrations (0-150 nM) of unlabelled RBC6 (SEQ ID NO:20 and SEQ ID NO:21) and 80 units/ml RNasin in TK buffer. The filter binding assays were carried out as described above, and a Scatchard plot (FIG. 14) was obtained from the results.

rev protein [3] = test: Competition filter binding against 32P-labelled R7 (FIGS. 13, 17); details: 1.5 nM labelled R7, 24 nM rev, 0-60 nM competitor
Description: In these experiments, uniformly ^32 P-labelled R7 (1.5 nM) was competed against 0-60 nM unlabelled competitor RNA in the presence of 24 nM rev protein.
The mixtures for competition binding (0.5 ml) included 1.5 nM ^32 P-labelled R7 (ca. 20,000 cpm), 24 nM rev protein, 1.5 ug/ml calf thymus DNA, 0.67 ug/ml yeast rRNA, varying concentrations (0-60 nM) of unlabelled competitor RNA and 80 units/ml RNasin in TK buffer (50 mM Tris-HCl (pH7.9) and 20 mM KCl). Binding was allowed to take place for more than 15 min on ice, and each mixture was passed through a Millipore GS filter (a 2.5 cm disk with a pore size of 0.22 um) prewashed twice with 0.6 ml of ice-cold TK buffer. The filter was washed with 0.6 ml of cold TK buffer and dried. The radioactivity retained on the filter was counted by liquid scintillation, and the results were plotted on a graph (FIG. 13).

Question: With “RBC6: chemically synthesized RNA duplex (14-mer annealed to 15-mer), bubble with six base pairs on each side (chain 1 CGUGUGGGCGCAGC; chain 2 GCUGCGGUACACACG; RNA, backbone not given here)” as the substance, how does the Kd (rev protein [1]) read?
Answer: 3.8 nM

Question: And the Kd (rev protein [2])?
Answer: ~3 nM

Question: What about the “competition for rev binding against labelled R7, result in words” value (rev protein [3]) of the same substance?
Answer: competed about half as well as R7
